The values that follow come from PMC4043709 (Drug Design, Development and Therapy, 2014).

The data set deals with T1, ABCG2 (Homo sapiens, UniProt Q9UNQ0).
T1 sequence (Q9UNQ0 1-655): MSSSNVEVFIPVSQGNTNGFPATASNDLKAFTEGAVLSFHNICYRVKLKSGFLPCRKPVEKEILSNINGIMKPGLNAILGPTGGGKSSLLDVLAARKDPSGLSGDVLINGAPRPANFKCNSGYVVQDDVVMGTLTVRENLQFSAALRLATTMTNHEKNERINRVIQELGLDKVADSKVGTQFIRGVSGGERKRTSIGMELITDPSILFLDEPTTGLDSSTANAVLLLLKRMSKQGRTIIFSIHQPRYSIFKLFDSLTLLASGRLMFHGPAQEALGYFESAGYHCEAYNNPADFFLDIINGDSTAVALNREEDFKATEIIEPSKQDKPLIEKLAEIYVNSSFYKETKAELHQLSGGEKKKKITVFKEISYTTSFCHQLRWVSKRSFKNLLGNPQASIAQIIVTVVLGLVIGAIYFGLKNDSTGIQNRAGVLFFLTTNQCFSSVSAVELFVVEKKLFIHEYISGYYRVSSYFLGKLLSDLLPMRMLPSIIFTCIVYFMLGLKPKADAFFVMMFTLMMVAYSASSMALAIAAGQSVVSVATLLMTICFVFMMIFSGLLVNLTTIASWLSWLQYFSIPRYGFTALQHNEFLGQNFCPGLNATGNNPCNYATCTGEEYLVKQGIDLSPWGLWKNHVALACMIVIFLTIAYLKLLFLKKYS
Nature of the data set: ABCG2-mediated mitoxantrone efflux. The conditions noted are these: 6 versus 3; 10 versus 5. It counts as cell-based.

Take `COc1cc(C(=O)/C=C/c2ccc3nccnc3c2)ccc1O` [Compound 6, (2E)-1-(3′-methoxy,4′-hydroxy-phenyl)-3-(quinoxalin-6-yl)-2-propen-1-one]: the “fold decrease of inhibition caused by hydroxyl group at 4′ position” value was 8 fold. Regarding `COc1cc(C(=O)/C=C/c2ccc3nccnc3c2)cc(OC)c1O` [Compound 10, (2E)-1-(3′,5′-dimethoxy,4′-hydroxy-phenyl)-3-(quinoxalin-6-yl)-2-propen-1-one], the “fold decrease of inhibition caused by hydroxyl group at 4′ position” value is given as 5 fold.
